These results are taken from ChEMBL document CHEMBL1144938, “Human beta-secretase (BACE) and BACE inhibitors” (J Med Chem, 2003).

The EC50 is the midpoint of the concentration-response curve. One may read the IC50 as the midpoint of a concentration-inhibition curve.

In test [1] the target is T1, Beta-secretase 1 (Homo sapiens, UniProt P56817). Briefly: Compound was tested for its effective concentration against human beta-Secretase (BACE).
The target in test [2] is T1, Beta-secretase 1. Briefly: Compound was tested for its inhibitory activity against human beta-Secretase (BACE).

Numbered stars: 1 amine (or outer) side, 2 acyl side, 3 side chain; on linkers, the order of the positions; unused ones are H or OH. Square brackets hold non-standard residues; d marks the D form. Peptide text beside a SMILES is read from it. Sta = CC(C)C[C@H](N)[C@@H](O)CC(=O)O; X1 = CCC(O)[C@H](N[*:1])C(=O)[*:2]; Orn = NCCC[C@H](N)C(=O)O

T1 sequence (P56817 whole entry): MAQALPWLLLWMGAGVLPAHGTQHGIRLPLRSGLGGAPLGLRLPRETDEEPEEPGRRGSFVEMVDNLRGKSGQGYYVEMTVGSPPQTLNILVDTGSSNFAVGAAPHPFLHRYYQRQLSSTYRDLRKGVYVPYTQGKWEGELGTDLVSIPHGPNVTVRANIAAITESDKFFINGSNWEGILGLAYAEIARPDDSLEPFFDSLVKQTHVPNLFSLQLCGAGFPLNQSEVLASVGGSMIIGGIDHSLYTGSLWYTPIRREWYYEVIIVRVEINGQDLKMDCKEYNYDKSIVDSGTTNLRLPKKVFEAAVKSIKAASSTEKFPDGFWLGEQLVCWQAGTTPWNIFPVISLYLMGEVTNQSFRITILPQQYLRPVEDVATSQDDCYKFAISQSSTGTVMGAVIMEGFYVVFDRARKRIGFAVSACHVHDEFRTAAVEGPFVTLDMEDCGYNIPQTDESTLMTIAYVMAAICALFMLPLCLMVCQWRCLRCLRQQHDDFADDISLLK

In turn, `CC(C)[C@H](NC(=O)C[C@H](O)[C@H](Cc1cc(F)cc(F)c1)NC(=O)C(O)c1ccccc1-c1ccccc1)C(=O)Nc1cc(C(=O)O)cc(C(=O)O)c1` (stereo partly specified) gave a 50% effective concentration (EC50) at Beta-secretase 1 [1] of 10000 nM. For the same compound, the IC50 on Beta-secretase 1 [2] turned out to be 20 nM. In the same order, the values of `COC(=O)c1cc(NC(=O)[C@@H](NC(=O)C[C@H](O)[C@H](Cc2cc(F)cc(F)c2)NC(=O)C(O)c2ccccc2-c2ccccc2)C(C)C)cc(C(=O)OC)c1` (stereo partly specified) are 4000 nM and 120 nM. On to `CSCC[C@H](NC(=O)[C@@H](NC(=O)OC(C)(C)C)C(C)C)C(=O)N[C@@H](CC(C)C)[C@@H](O)C[C@@H](C)C(=O)N[C@H](C(=O)NCc1ccccc1)C(C)C`, for which 2 nM corresponded to half-maximal inhibition against Beta-secretase 1 [2] (IC50). On the same count and under the same terms, under `CCC(O)[C@H](NC(=O)[C@@H](N)CCCN)C(=O)N[C@@H](CCC(=O)O)C(=O)N[C@@H](CCC(=O)O)C(=O)N[C@H](C(=O)N[C@@H](CO)C(=O)N[C@@H](CCC(=O)O)C(=O)N[C@H](C(=O)N[C@@H](CCSC)C(=O)N[C@@H](CC(C)C)[C@@H](O)CC(=O)N[C@H](C(=O)N[C@@H](C)C(=O)N[C@@H](CCC(=O)O)C(=O)N[C@@H](Cc1ccccc1)C(=O)O)C(C)C)C(C)C)[C@@H](C)CC` (stereo partly specified) (H-[Orn][X1]EEISEVM[Sta]VAEF-OH) stands 30 nM.
